{"source": "patent US20050261194A1", "about": "“Use of thymulin-like peptides for making pain-relieving medicines” (priority 2001, published 2005)", "assay_type_in_all_cases": "in vivo, rat", "key": {"[1]": {"test_system": "IL-1β", "assay": "IL-1β in hind paw skin after intraplantar ET (ELISA)", "description": "(§1) These experiments required tissue sampling. The animals were sacrificed by anesthesia (sodium penthiobarbital, 50 mg/kg) and the skin of the hind paws is sampled either at 1 h (for the determination of the TNFα) or at 4 h (for the determination of IL-1β, IL-6 and NGF) after the endotoxin injection.\n(§2) These tissue samples are weighed and then quick frozen and stored at −70° C. with a view of proceeding with the evaluation of IL-1β, TNFα, IL-6 and NGF.\n(§3) In another series of experiments, the tissues are taken as described above using different groups of rats; the one group being pretreated with TAP 30 minutes before injection of ET and the other group having been injected with TAP only.\n(§4) The tissues are homogenized in a phosphate buffer solution (PBS, pH=7.4), containing 0.4 M of NaCl, 0.05% of Tween-20®, 0.5% bovine serum albumin (BSA), 0.1 mM of phenylmethylsulfonyl fluoride, 0.1 mM of benzethonium chloride, 10 mM of EDTA and 20 KI/mL of aprotinin.\n(§5) The mixture is then centrifuged at 1,200 g for 60 minutes at 4° C. The cytokines and the NFG contained in the supernatant were measured using ELIZA assays. […]"}, "[2]": {"test_system": "IL-6", "assay": "IL-6 in hind paw skin after intraplantar ET (ELISA)", "description": "as §1, §2, §3, §4, §5"}, "[3]": {"test_system": "NGF", "assay": "NGF in hind paw skin after intraplantar ET (immunological kit)", "description": "as §1, §2, §3, §4\nThe mixture is then centrifuged at 1,200 g for 60 minutes at 4° C. The cytokines and the NFG contained in the supernatant were measured using ELIZA assays.\nThe NGF is measure with the aid of an immunological kit (Promega) by following the recommended instructions of the manufacturer. […]"}, "[4]": {"test_system": "rats", "assay": "Fever (rectal temperature) induced by intraperitoneal ET", "settings": "TAP 25 μg i.p. before ET 50 μg i.p.; rectal temperature 1, 3, 6 h; FIG. 4C", "description": "Protocol 2(b): Different groups of rats (n=5 in each group) were treated in the following fashion • either they received one intraperitoneal injection of 50 μg of ET, • or they were pretreated with the TAP peptide (25 μg, intraperitoneal injection), 30 minutes before an injection of endotoxin.\nRectal temperature was measured at 1 hour, 3 hours and 6 hours.\nA control group received an intraperitoneal injection of TAP peptide (25 μg dissolved in 100 μl of saline solution)."}, "[5]": {"test_system": "rats", "assay": "CCI (chronic constriction injury) mononeuropathy: allodynia and hyperpathy", "description": "Adult male Sprague-Dawley rats (250-300 g) were used for these trials. Over the period of the experiments, the rats were placed under standard conditions (4 to 5 individuals to a cage, 12 hour day/night cycle, 22.2° C.), with free access to water and food. The necessary surgical procedures were done under deep anesthesia using ketamine (Ketalar®, 40-50 mg/kg, intraperitoneal injection), preceded by pre-anesthesia using chlorpromazine (8 mg/kg, idem) and atropine (0.05 mg/kg, idem).\nMononeuropathy was induced in different groups of rats (n=6 rats in each group) according to the CCI (chronic constriction injury, chronic nerve constriction, Bennet G. J. et Xie Y. K., 1988, A peripheral mononeuropathy in rat that produces disorders of pain sensation like those seen in man, Pain, 33:87-107) or according to the SNI (spared nerve injury, spared nerve of the enervated paw, Decosterd I. et Woolf C. J., 2000, Spared nerve injury: an animal model of persistent peripheral neuropathic pain, Pain, 87:149-158). The sciatic nerve was exposed after dissection of the posterior hip and by incision through the skin and the fatty layer covering the popliteal fossa. For the CCI model, four loose ligatures (chromed catgut 4.0) were placed on the proximal side of the sciatic trifurcation. For the SNI model, the external popliteal sciatic nerve and the internal popliteal sciatic nerve were isolated, tightly ligatured and sectioned, while the sural nerve innervating the lateral aspect of the paw was left intact.\nThe rats were placed in individual compartments of one cage, whose floor was made of a metal grating allowing access to the heel pad and to the lateral aspect of the paw with wires.\nFor mechanical allodynia, the plantar surface of the hind paws (lateral surface for the SNI model and the median plantar surface for the CCI) was contacted with the von Frey wires (VFF 4.31 and 5.07, Stoelting Co., USA), which corresponded to the forces of 2.041 and 11.749 g (18.5 and 106.7 mN), respectively. […] The number of paw retractions induced by 10 trials was established for each rat on each hind paw prior to (baseline) and after induction of the mono-neuropathy. In normal rats, the low caliber wires (VFF 4.31) and higher caliber (VFF 5.07) induced an average 1.3±0.2 and 2.7±0.3 responses/10 trials, respectively.\nThe method described by Choi et al. (1994, Behavioral signs of ongoing pain and cold allodynia in a rat model of neuropathic pain, Pain, 59:369-376) was used for evaluation of cold allodynia. It consists of applying several drops (approximately 50 μl) of an acetone solution on the paw and measuring the duration of the retraction reaction. One half second and 20 seconds are the values chosen arbitrarily for the minimum and maximum threshold, respectively.\nThe duration (D) of retraction of the paw (RP) in response to a nociceptive ray of radiant heat oriented towards the plantar surface was established in the normal rat. […] the DRP after induction of the mononeuropathy was considered to be an indication of hyperalgesia. Each rat underwent two RP tests per session a minimum of every five minutes.\nThe neuropathic manifestations were at maximum seven to ten days after induction of the neuropathy. The effects of the injections of TAP were tested during this period, which corresponds to the peak of the neuropathy.\nDuring the experiments done on rats suffering from neuropathy, allodynia and hyperpathy were evaluated in each group of animals with reference to the baseline condition established prior to induction of mononeuropathy. For example, the average of the number of paw withdrawal induced by each VFF was calculated for all of the rats of each group and the variation of this mean has been determined after treatment with TAP at different time periods after the injection. The same method has been followed for allodynia in the code and the hypertrophy relative to heat."}, "[6]": {"test_system": "rats", "assay": "Daily treatment with TAP in neuropathic rats (model not stated, FIG. 11)", "settings": "TAP 1 μg in 100 μL daily over 5 consecutive days"}, "[7]": {"settings": "TAP 25 μg in control animals, no ET"}}, "data": [{"substance": "Glu-Ala-lys-Ser-Gln-Gly-Gly-Ser-Asp (SQGGSD; N-terminal Glu-Ala-Lys; printed: Ser-Gln-Gly-Gly-Ser-Asp) [TAP]", "values": [{"measurement": "change of IL-1β concentration, TAP alone", "setting": "[1]; [7]", "value": "did not induce significant change"}, {"measurement": "IL-1β concentration", "setting": "[1]; TAP pretreatment before intraplantar ET, ET alone 2850.6±255.4, saline 400.0±45.0, P<0.01", "value": "1686.0±266.0", "unit": "pg/paw"}, {"measurement": "change of IL-6 concentration, TAP alone", "setting": "[2]; [7]", "value": "did not induce significant change"}, {"measurement": "IL-6 concentration", "setting": "[2]; TAP pretreatment before intraplantar ET, ET alone 2831±285, saline 250.0±50.0, p<0.001", "value": "1158±197.0", "unit": "pg/paw"}, {"measurement": "change of NGF concentration, TAP alone", "setting": "[3]; [7]", "value": "did not induce significant change"}, {"measurement": "NGF concentration", "setting": "[3]; TAP pretreatment before intraplantar ET, ET alone 23.0±1.73, saline 9.11±1.6, p<0.001", "value": "16.73±2.70", "unit": "ng/paw"}, {"measurement": "effect on ET-induced increase of body temperature", "setting": "[4]", "value": "nullified the process of increase of body temperature"}, {"measurement": "reversibility of the effects, time after injection", "setting": "[5]; CCI, TAP 5 μg i.p.", "value": "three to four hours"}, {"measurement": "time of maximum effect on cold allodynia after injection", "setting": "[5]; CCI, TAP 5 μg i.p.", "value": 75, "unit": "min"}, {"measurement": "time of maximum effect on hyperpathy after injection", "setting": "[5]; CCI, TAP 5 μg i.p.", "value": 75, "unit": "min"}, {"measurement": "time of maximum effect on mechanical allodynia after injection", "setting": "[5]; CCI, TAP 5 μg i.p.", "value": "two hours"}, {"measurement": "dose giving maximal attenuation of the neuropathic manifestations", "setting": "[5]; CCI, doses 1, 5 and 25 μg compared, FIG. 7", "value": 5, "unit": "μg/rat"}, {"measurement": "effect on neuropathic manifestations, CCI model", "setting": "[5]; TAP 5 μg in 100 μl i.p., FIG. 5", "value": "significant attenuation"}, {"measurement": "effect of daily treatment on allodynia", "setting": "[6]; FIG. 11", "value": "progressive reduction of the manifestations of the allodynia"}, {"measurement": "effect of daily treatment on the effects of each injection", "setting": "[6]; FIG. 11", "value": "potentiation of the effects of each injection"}, {"measurement": "effect of daily treatment on cold allodynia", "setting": "[6]; compared with single injection", "value": "increased inhibition of the cold allodynia"}]}]}
